Reference: patent US11566029B2, “Pyrazolo[1,5-a]pyrimidine-5,7-diamine compounds as CDK inhibitors and their therapeutic use” (CANCER RESEARCH TECHNOLOGY LIMITED, priority 2014, dated 2023)
Where a name gives a salt, the structure may show the parent alone.

Columns and labels:
HCT116 cells = assay: Cell growth inhibition assay (sulforhodamine B), HCT116; format: cell-based; conditions: Homo sapiens, HCT-116; 72 hours, SRB assay; read-out: Growth Inhibition, GI50 HCT116
Experimental: (§1) All cells were purchased from the American Type Culture Collection (ATCC) and MCF7 cells were routinely cultured in Dulbecco's Modified Eagle's Medium (DMEM) supplemented with 10% fetal calf serum (FCS) (First Link) and HCT116 cells were routinely cultured in Roswell Park Memorial Instititute Medium (RPMI) supplemented with 10% FCS. Cell growth was assessed using a known sulforhodamine B assay (see, e.g., Skehan et al., 1990).
(§2) MCF-7 cells purchased from ATCC (USA) were routinely passaged in DMEM, supplemented with 10% FCS and HCT116 cells purchased from ATCC (USA) were routinely passaged in RPMI supplemented with 10% FCS and kept in a 37° C. incubator with 5% CO2. The growth assay for both cell lines was performed in the appropriate media using the exact same protocol as described here. For the growth assay, 5000 cells were seeded into each well of 96-well plates in DMEM containing 10% FCS. Test compounds prepared in DMSO were added to the medium at concentrations ranging from 0.00038-100 μM. The cells were incubated for a further 72 hours, at which time they were fixed by the addition of 100 μL/well of ice-cold 40% trichloroacetic acid (TCA). The plates were left for 1 hour at 4° C., washed in water and 100 μL of 0.4% (w/v) sulforhodamine (SRB; Sigma-Aldrich, UK) prepared in 1% acetic acid was added. Plates were washed in 1% acetic acid to remove excess SRB reagent, air dried, and bound dye was solubilized by the addition of 100 μL of 10 mM tris base. The plates were read at 492 nm using a plate reader.

CDK1/cycA1 = target: T1, CDK1/cycA1 (Homo sapiens, UniProt P06493); assay: In vitro kinase assay (PKLight luciferase ATP readout), CDK1; format: biochemical; conditions: ATP at Km; read-out: In vitro Kinase Inhibition CDK1 IC50
T1 construct: purchased ProQinase GmbH
Experimental: (§3) Purified recombinant CDK1/cycA1, CDK2/cycA1, CDK4/cycD1, CDK5/p35NCK, CDK6/cycD1, CDK7/CycH/MAT1, and CDK9/CycT1 were purchased from ProQinase GmbH. Kinase assays were performed according to manufacturer's protocols. Rb-CTF (ProQinase GmbH) (cat number: 0040-0000-6) was used as the kinase substrate for CDK1, CDK2, CDK4, and CDK6 kinases. […] A luciferase assay (PKLight assay; Cambrex) was used to determine ATP remaining at the end of the kinase reaction, which provides a measure of kinase activity, according to the manufacturer's protocols.
(§4) Kinase assays were carried out by incubation of increasing amounts of test compound with purified recombinant CDK-Cyclin complex, followed by measurement of free ATP remaining in the reaction using the luciferase assay kit (PKLight, Cambrex) which therefore provided a measure of inhibition for the specific CDK.
(§5) 5 μL of 1× kinase buffer (Cell Signalling Technologies) was mixed with 200 ng CDK1, 200 ng CDK2, 50 ng CDK4, 100 ng CDK5, or 200 ng CDK6 with 5 μg Rb-CTF and 300 ng CDK7 or 200 ng CDK9 with 500 μM RNA Poll II CTD peptide. […] The mixture was incubated at 30° C. for 30 minutes. The reaction is stopped with 20 μL of Stop Solution (provided in the PKLight kit) for 10 minutes at room temperature. Then 40 μL of the luciferase mix was added to the reaction mixture which was incubated for a further 10 minutes at room temperature and measured using the Tecan Infinite 2000 plate reader. GraphPad Prism Software was used to generate standard curve and determine the IC50's for each CDK.

CDK2/cycA1 = target: T2, CDK2/cycA1 (Homo sapiens, UniProt P24941); assay: In vitro kinase assay (PKLight luciferase ATP readout), CDK2; format: biochemical; conditions: ATP at Km; read-out: In vitro Kinase Inhibition CDK2 IC50
T2 construct: purchased ProQinase GmbH
Experimental: as §3, §4, §5

MCF7 cells = assay: Cell growth inhibition assay (sulforhodamine B), MCF7; format: cell-based; conditions: Homo sapiens, 72 hours, SRB assay, read-out: Growth Inhibition, GI50 MCF7
Experimental: as §1, §2

CDK7/CycH/MAT1 = target: T3, CDK7/CycH/MAT1 (Homo sapiens, UniProt P50613); assay: In vitro kinase assay (PKLight luciferase ATP readout), CDK7; format: biochemical; conditions: for IC50: ATP at Km, read-out: In vitro Kinase Inhibition CDK7 IC50; for Selectivity CDK1/CDK7: ratio of CDK1 IC50 to CDK7 IC50; for Selectivity CDK2/CDK7: ratio of CDK2 IC50 to CDK7 IC50
T3 construct: purchased ProQinase GmbH
Experimental: as §3, §4, §5

T3 sequence (P50613 whole entry): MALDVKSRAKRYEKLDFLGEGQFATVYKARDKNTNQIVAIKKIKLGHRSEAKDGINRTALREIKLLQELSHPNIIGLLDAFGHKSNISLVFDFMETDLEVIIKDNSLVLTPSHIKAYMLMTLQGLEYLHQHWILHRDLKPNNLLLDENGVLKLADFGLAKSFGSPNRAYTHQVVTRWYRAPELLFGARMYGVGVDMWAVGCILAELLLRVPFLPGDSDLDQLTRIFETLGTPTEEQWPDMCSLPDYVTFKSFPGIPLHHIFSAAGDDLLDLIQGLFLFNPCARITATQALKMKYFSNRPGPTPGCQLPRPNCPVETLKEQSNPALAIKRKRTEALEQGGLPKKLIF
T3 sequence (P51946 whole entry partner): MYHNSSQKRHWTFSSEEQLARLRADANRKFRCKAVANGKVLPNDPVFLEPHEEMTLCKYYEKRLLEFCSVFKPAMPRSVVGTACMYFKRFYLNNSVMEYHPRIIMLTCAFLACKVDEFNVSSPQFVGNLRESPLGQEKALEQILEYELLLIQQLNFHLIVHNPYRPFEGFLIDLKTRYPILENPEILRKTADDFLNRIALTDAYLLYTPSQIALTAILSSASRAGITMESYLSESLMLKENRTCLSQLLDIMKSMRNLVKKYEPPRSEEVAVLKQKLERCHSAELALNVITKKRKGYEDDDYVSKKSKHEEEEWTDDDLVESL
T3 sequence (P51948 whole entry partner): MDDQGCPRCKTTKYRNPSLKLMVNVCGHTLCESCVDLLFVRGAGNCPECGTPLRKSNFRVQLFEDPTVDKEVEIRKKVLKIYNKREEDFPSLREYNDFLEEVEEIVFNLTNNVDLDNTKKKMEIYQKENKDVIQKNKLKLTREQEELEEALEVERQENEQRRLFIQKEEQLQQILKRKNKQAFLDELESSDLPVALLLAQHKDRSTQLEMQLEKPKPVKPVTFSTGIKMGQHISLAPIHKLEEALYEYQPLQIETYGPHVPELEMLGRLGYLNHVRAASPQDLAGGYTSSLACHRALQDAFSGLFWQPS

| Structure (SMILES) | GI50 (HCT116 cells) | IC50 (CDK1/cycA1) | IC50 (CDK2/cycA1) | GI50 (MCF7 cells) | IC50 (CDK7/CycH/MAT1) | Selectivity CDK1/CDK7 (CDK7/CycH/MAT1) | Selectivity CDK2/CDK7 (CDK7/CycH/MAT1) |
| --- | --- | --- | --- | --- | --- | --- | --- |
| CO[C@H]1CN[C@H](CNc2cc(NCc3ccccc3)n3ncc(C(C)C)c3n2)C1 [PPDA-029] | > 100000 nM |  | 2840 nM | 17600 nM | 1010 nM |  | 2.8 fold |
| CC(C)c1cnn2c(NCc3ccccc3)cc(NC[C@H]3CCCC[C@@H]3O)nc12 [XX-02, reference compound] | > 100000 nM |  |  | 47000 nM | 687 nM |  |  |
| CC(C)c1cnn2c(Nc3csc4ccccc34)cc(NC[C@H]3CCNC[C@@H]3O)nc12 [PPDA-008] | 5100 nM | 2950 nM | 42 nM | 3100 nM | 120 nM | 25 fold | 0.4 fold |
| CC(C)c1cnn2c(NCC3CCCCC3)cc(N[C@H]3CNC[C@H]3O)nc12 [PPDA-016] | 7400 nM | 1460 nM | 4550 nM | 13100 nM | 246 nM | 5.9 fold | 18 fold |
| CC(C)c1cnn2c(NCc3ccccc3)cc(N[C@H]3CNCC3O)nc12 (stereo in doubt) [PPDA-015, (3S,4S)-4-(7-(Benzylamino)-3-iso-propyl-pyrazolo[1,5-a]pyrimidin-5-ylamino)-pyrrolidin-3-ol hydrochloride] | 12700 nM | 3950 nM | 1290 nM | 4100 nM | 27 nM | 146 fold | 48 fold |
| CC(C)c1cnn2c(NCc3ccccc3)cc(NCC3CCNCC3)nc12 [XX-01, reference compound] | 18700 nM |  |  | 12200 nM | 310 nM |  |  |
| CC(C)c1cnn2c(NCC3CCCCC3)cc(NC[C@H]3CCNC[C@@H]3O)nc12 [PPDA-004] | 2500 nM | 1820 nM | 1290 nM | 2700 nM | 940 nM | 1.9 fold | 1.4 fold |
| CC(C)c1cnn2c(NCc3ccncc3)cc(NC[C@H]3CCNC[C@@H]3O)nc12 [PPDA-003, (3R,4R)-4-((3-iso-Propyl-7-(pyridin-4-ylmethylamino)pyrazolo[1,5-a]pyrimidin-5-ylamino)methyl)piperidin-3-ol hydrochloride] |  | 1910 nM | 114 nM |  | 47 nM | 41 fold | 2.5 fold |
| CC(C)c1cnn2c(NCc3ccccc3)cc(N[C@H]3CNCC[C@@]3(O)CO)nc12 [PPDA-024] | 46400 nM | 844 nM | 1030 nM | 12200 nM | 150 nM | 5.6 fold | 6.8 fold |
| CC(C)c1cnn2c(NCc3ccccc3)cc(NC[C@H]3NC[C@H](O)[C@@H]3O)nc12 [PPDA-032] |  |  | 1500 nM |  | 305 nM |  | 4.9 fold |
| CC(C)c1cnn2c(NCc3ccccc3)cc(NC3CNCC[C@]3(O)CO)nc12 (stereo partly drawn) [PPDA-025] | 23700 nM |  |  | 10100 nM |  | 3.7 fold | 1.4 fold |

Results, then the molecule that gave them:

| GI50 (HCT116 cells) | IC50 (CDK1/cycA1) | IC50 (CDK2/cycA1) | GI50 (MCF7 cells) | IC50 (CDK7/CycH/MAT1) | Selectivity CDK1/CDK7 (CDK7/CycH/MAT1) | Selectivity CDK2/CDK7 (CDK7/CycH/MAT1) | Structure (SMILES) |
| --- | --- | --- | --- | --- | --- | --- | --- |
| 7300 nM | 4010 nM | 262 nM | 3300 nM | 43 nM | 93 fold | 6.1 fold | CC(C)c1cnn2c(NCc3ccccc3)cc(N[C@H]3CN[C@@H](CO)C3)nc12 [PPDA-028] |
| 11400 nM | 1350 nM | 754 nM | 12800 nM | 1890 nM | 0.7 fold | 0.4 fold | CC(C)c1cnn2c(NCc3ccc(C(F)(F)F)cc3)cc(N[C@H]3CNC[C@H]3O)nc12 [PPDA-017] |
| 20400 nM |  | 393 nM | 5600 nM | 473 nM |  | 0.8 fold | CC(C)c1cnn2c(NCc3ccccc3)cc(NC[C@H]3NCC[C@@H]3O)nc12 [PPDA-031] |
| 5600 nM | 1200 nM | 450 nM | 3700 nM | 60 nM | 20 fold | 7.5 fold | CO[C@@H]1CCNCC1Nc1cc(NCc2ccccc2)n2ncc(C(C)C)c2n1 (stereo partly drawn) [PPDA-023] |
| 900 nM | 41 nM | 1 nM | 100 nM | 14 nM | 2.9 fold | 0.1 fold | CC(C)c1cnn2c(NCc3ccccc3)cc(NCC3(CO)CCNC3)nc12 (racemic) [PPDA-018, (3-((7-(Benzylamino)-3-iso-propylpyrazolo [1,5-a]pyrimidin-5ylamino)methyl)pyrrolidin-3-yl)methanol hydrochloride] |
| 1500 nM | 441 nM | 22 nM | 600 nM | 44 nM | 10 fold | 0.5 fold | CC(C)c1cnn2c(NCc3ccncc3)cc(NC[C@@]3(CO)CCNC3)nc12 (racemic) [PPDA-020] |
| 1600 nM | 143 nM | 98 nM | 300 nM | 414 nM | 0.3 fold | 0.2 fold | CC(C)c1cnn2c(NCc3ccccc3Cl)cc(NCC3(O)CCNCC3)nc12 [PPDA-011] |
| 10000 nM | 405 nM | 178 nM | 8400 nM | 40 nM | 10 fold | 4.5 fold | CC(C)c1cnn2c(NC3CCN(S(=O)(=O)c4ccc(F)cc4)CC3)cc(NC[C@H]3CCNC[C@@H]3O)nc12 [PPDA-006] |
| 86600 nM | 559 nM | 459 nM | 38900 nM | 462 nM | 1.2 fold | 1.0 fold | CC(C)c1cnn2c(NC(=O)C3CCNCC3)cc(NC[C@H]3CCNC[C@@H]3O)nc12 [PPDA-009, N-(5-((((3R,4R)-3-Hydroxypiperidin-4-yl)methyl)amino)-3-iso-propylpyrazolo[1,5-a]pyrimidin-7-yl)piperidine-4-carboxamide hydrochloride] |
| 1600 nM | 74 nM | 118 nM | 500 nM | 484 nM | 0.2 fold | 0.2 fold | CC(C)c1cnn2c(NCc3ccccc3Br)cc(NCC3(O)CCNCC3)nc12 [PPDA-012] |
| 10700 nM | 162 nM | 203 nM | 2000 nM | 89 nM | 1.8 fold | 2.3 fold | CC(C)c1cnn2c(NCc3ccccc3)cc(N[C@@H]3CN[C@H](CO)C3)nc12 [PPDA-026, ((2S,4S)-4-(7-(Benzylamino)-3-iso-propylpyrazolo[1,5-a]pyrimidin-5-ylamino)pyrrolidin-2-yl)methanol hydrochloride] |
|  | 285 nM | 106 nM |  | 77 nM |  |  | CC(C)c1cnn2c(NCc3ccccc3)cc(N[C@@H]3CNCC[C@]3(O)CO)nc12 [PPDA-025] |
| > 100000 nM |  | 999 nM | 20200 nM | 59 nM |  | 17 fold | CC(C)c1cnn2c(NCc3ccccc3)cc(NC[C@@H]3C[C@@H](O)CN3)nc12 [PPDA-030] |
